Source: PubChem BioAssay (NCI)
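A five-concentration, 48-hour dose response in 96-well plates underlies each endpoint, interpolated linearly between surrounding concentrations. TGI is the concentration that stops growth completely.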

Assays:
Test in all cases: DTP human tumour cell line panel, 48 h
CAKI-1 renal = tested on: CAKI-1 renal
U251 CNS = tested on: U251 CNS
OVCAR-5 ovarian = tested on: OVCAR-5 ovarian
MCF7 breast = tested on: MCF7 breast
UACC-257 melanoma = tested on: UACC-257 melanoma
A498 renal = tested on: A498 renal
IGROV1 ovarian = tested on: IGROV1 ovarian
HL-60(TB) leukemia = tested on: HL-60(TB) leukemia
M14 melanoma = tested on: M14 melanoma
ACHN renal = tested on: ACHN renal
SR leukemia = tested on: SR leukemia
KM12 colon = tested on: KM12 colon
NCI-H23 lung = tested on: NCI-H23 lung
SF-539 CNS = tested on: SF-539 CNS
SK-MEL-2 melanoma = tested on: SK-MEL-2 melanoma
MDA-N = tested on: MDA-N
786-0 renal = tested on: 786-0 renal
LOX IMVI melanoma = tested on: LOX IMVI melanoma
SK-OV-3 ovarian = tested on: SK-OV-3 ovarian
SF-295 CNS = tested on: SF-295 CNS
A549 NSCLC = tested on: A549 NSCLC
HCT-15 colon = tested on: HCT-15 colon
NCI/ADR-RES ovarian = tested on: NCI/ADR-RES ovarian
SK-MEL-5 melanoma = tested on: SK-MEL-5 melanoma
TK-10 renal = tested on: TK-10 renal
T-47D breast = tested on: T-47D breast
UO-31 renal = tested on: UO-31 renal
HS 578T breast = tested on: HS 578T breast
SNB-75 CNS = tested on: SNB-75 CNS
SNB-19 CNS = tested on: SNB-19 CNS
HT29 colon = tested on: HT29 colon
RPMI-8226 leukemia = tested on: RPMI-8226 leukemia
COLO 205 colon = tested on: COLO 205 colon
UACC-62 melanoma = tested on: UACC-62 melanoma
RXF 393 renal = tested on: RXF 393 renal
HCT-116 colon = tested on: HCT-116 colon
NCI-H522 lung = tested on: NCI-H522 lung
MDA-MB-435 = tested on: MDA-MB-435
HOP-62 NSCLC = tested on: HOP-62 NSCLC
SK-MEL-28 melanoma = tested on: SK-MEL-28 melanoma
OVCAR-8 ovarian = tested on: OVCAR-8 ovarian
SF-268 CNS = tested on: SF-268 CNS
DU-145 prostate = tested on: DU-145 prostate
EKVX NSCLC = tested on: EKVX NSCLC
MOLT-4 leukemia = tested on: MOLT-4 leukemia
PC-3 prostate = tested on: PC-3 prostate
MDA-MB-231 breast = tested on: MDA-MB-231 breast
SW-620 colon = tested on: SW-620 colon
HOP-92 NSCLC = tested on: HOP-92 NSCLC
NCI-H226 lung = tested on: NCI-H226 lung
NCI-H460 lung = tested on: NCI-H460 lung
CCRF-CEM leukemia = tested on: CCRF-CEM leukemia
BT-549 breast = tested on: BT-549 breast
OVCAR-3 ovarian = tested on: OVCAR-3 ovarian
MALME-3M melanoma = tested on: MALME-3M melanoma
SN12C renal = tested on: SN12C renal
K-562 leukemia = tested on: K-562 leukemia
OVCAR-4 ovarian = tested on: OVCAR-4 ovarian
HCC-2998 colon = tested on: HCC-2998 colon

Measured: TGI

O=C(O)CC(Nc1ccccc1)C(=O)O (configuration not stated)
not listed: HCC-2998 colon
> 100 µM: all other assays above

Cc1cc(O)c(C(c2cccnc2)c2c(O)cc(C)[nH]c2=O)c(=O)[nH]1
not listed: A498 renal | SF-539 CNS | SK-MEL-2 melanoma | SNB-75 CNS | SW-620 colon | HOP-92 NSCLC | NCI-H226 lung | HCC-2998 colon
> 100 µM: all other assays above

Cn1c(=O)[nH]c2[nH]c3ccccc3c2c1=O
not listed: PC-3 prostate | NCI-H460 lung | OVCAR-4 ovarian
> 100 µM: all other assays above

CSC(=NCCCCN=C(NS(=O)(=O)c1ccc(Cl)cc1)SC)NS(=O)(=O)c1ccc(Cl)cc1
not listed: KM12 colon | NCI-H23 lung | SK-OV-3 ovarian | A549 NSCLC | SK-MEL-5 melanoma | HS 578T breast | SNB-75 CNS | RXF 393 renal | NCI-H522 lung | MOLT-4 leukemia | NCI-H226 lung | BT-549 breast
> 100 µM: all other assays above
